Legend:
PERK = molecular target: T1, PERK (Rattus norvegicus, UniProt Q9Z1Z1); experiment: Inhibition of PERK autophosphorylation; format: cell-based
T1 sequence (Q9Z1Z1 28-1108): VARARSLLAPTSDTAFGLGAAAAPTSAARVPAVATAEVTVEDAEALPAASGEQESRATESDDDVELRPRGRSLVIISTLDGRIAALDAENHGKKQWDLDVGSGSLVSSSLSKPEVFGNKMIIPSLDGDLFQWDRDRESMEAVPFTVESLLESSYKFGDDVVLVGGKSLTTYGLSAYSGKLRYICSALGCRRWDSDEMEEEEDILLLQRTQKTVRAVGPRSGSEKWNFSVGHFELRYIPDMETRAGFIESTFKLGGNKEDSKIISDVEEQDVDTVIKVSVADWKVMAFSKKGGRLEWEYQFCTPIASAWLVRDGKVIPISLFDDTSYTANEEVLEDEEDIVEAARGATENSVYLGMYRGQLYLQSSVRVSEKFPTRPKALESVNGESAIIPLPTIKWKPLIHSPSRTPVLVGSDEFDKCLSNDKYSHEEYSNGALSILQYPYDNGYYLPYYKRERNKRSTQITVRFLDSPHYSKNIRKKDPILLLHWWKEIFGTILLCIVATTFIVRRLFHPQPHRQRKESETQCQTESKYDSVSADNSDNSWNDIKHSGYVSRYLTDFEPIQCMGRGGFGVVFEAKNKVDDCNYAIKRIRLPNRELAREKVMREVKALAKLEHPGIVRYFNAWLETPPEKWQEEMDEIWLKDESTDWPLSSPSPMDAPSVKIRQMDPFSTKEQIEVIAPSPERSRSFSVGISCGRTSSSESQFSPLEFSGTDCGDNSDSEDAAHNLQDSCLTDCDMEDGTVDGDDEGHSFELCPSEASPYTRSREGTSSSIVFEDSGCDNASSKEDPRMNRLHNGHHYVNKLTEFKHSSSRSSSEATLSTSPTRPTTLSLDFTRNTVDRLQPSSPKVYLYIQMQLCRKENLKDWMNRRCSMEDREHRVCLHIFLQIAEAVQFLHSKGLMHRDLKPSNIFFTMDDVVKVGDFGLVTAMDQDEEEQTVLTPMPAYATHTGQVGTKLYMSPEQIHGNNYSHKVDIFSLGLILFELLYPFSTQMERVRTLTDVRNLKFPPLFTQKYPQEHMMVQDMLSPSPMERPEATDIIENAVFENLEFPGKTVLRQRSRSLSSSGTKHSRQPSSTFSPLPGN

IRE1α = IRE1α (Rattus norvegicus, UniProt A0A4Y1YQ52); experiment: Inhibition of IRE1α RNase output; format: cell-based
Chain of IRE1α (A0A4Y1YQ52 21-977): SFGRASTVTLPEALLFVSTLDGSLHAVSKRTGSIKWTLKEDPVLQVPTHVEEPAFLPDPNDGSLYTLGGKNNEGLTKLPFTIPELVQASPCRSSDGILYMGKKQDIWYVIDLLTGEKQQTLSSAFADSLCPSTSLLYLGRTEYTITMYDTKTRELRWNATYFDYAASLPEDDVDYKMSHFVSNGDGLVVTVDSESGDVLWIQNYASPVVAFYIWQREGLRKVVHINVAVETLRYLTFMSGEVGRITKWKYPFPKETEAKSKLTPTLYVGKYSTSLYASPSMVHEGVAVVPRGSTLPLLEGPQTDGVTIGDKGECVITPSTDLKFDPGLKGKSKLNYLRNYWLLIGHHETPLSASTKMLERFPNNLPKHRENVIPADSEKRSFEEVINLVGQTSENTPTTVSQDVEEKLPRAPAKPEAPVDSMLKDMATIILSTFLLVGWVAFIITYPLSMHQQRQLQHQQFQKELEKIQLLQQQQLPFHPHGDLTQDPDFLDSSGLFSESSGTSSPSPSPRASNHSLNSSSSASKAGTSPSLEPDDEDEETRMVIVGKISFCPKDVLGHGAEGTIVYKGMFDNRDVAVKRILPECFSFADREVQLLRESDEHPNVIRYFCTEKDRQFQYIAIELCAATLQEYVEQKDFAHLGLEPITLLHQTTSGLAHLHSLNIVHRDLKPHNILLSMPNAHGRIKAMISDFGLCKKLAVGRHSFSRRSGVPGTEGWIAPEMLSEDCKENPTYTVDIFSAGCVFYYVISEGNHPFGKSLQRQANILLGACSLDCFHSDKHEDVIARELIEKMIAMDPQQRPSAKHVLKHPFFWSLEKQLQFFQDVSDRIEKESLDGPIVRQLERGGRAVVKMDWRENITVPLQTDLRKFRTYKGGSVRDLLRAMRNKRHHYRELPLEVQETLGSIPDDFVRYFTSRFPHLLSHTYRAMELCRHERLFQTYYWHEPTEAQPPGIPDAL

| Compound | IC50 (PERK) | IC50 (IRE1α) |
| --- | --- | --- |
| Cc1cccc(CC(=O)N2CCc3c2ccc(-c2cn(C)c4ncnc(N)c24)c3F)n1 [GSK2656157] | ~125 nM | – |
| Cc1ccc2c(NS(=O)(=O)c3ccccc3Cl)cccc2c1Oc1ncccc1-c1ccnc(N[C@H]2CCCNC2)n1 [KIRA8] | – | ~125 nM |
